Source: US20230150986A1, “ANTAGONISTS OF THE MUSCARINIC ACETYLCHOLINE RECEPTOR M4” (Vanderbilt University, priority 2019, published 2023)

Target: T1, Human M4 (Homo sapiens, UniProt P08173)
T1 construct: Human or rat M4 cDNA, along with the chimeric G protein Gq,5, were transfected into Chinese hamster ovary (CHO-K1) cells; expressed in transfected cells; host or cells: CHO-K1 (M4/Gqi5/CHO)
T1 sequence (P08173 1-479): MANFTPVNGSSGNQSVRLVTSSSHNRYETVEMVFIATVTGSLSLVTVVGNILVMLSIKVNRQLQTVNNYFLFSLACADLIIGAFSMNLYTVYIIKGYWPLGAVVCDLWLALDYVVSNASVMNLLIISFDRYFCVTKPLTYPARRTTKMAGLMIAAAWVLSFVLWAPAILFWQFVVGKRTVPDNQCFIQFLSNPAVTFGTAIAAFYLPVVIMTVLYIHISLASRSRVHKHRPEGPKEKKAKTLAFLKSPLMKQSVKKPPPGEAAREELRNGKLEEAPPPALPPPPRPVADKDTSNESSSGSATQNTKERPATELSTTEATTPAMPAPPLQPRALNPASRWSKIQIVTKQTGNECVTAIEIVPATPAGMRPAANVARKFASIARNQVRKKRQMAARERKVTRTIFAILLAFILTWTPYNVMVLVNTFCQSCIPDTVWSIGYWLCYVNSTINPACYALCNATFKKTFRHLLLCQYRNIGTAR
Test: mAChR M4 cell-based functional assay (calcium flux, decrease of EC80 acetylcholine response)
Conditions: for Human M4 Emin: % ACh maximum at 30 μM; for IC50: CHO-K1 cells with human M4 and Gqi5, EC80 acetylcholine
How it was run: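 CHO-K1 cells stably co-expressing M4 with chimeric Gqi5, loaded with Fluo-4 AM for 50 min at 37 °C; compounds added as 10-point 1:3 curves, then acetylcholine at EC20 (143 s) and EC80 (268 s). Calcium read by FDSS fluorescence ratio; IC50 from four-parameter fit of decrease in EC80 acetylcholine response.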

Compound	Human M4 Emin [%]	IC50 [nM]
Fc1cc(F)c(F)c(-c2ccc(N[C@H]3C[C@@H]4CN(CC5CCOCC5)C[C@@H]4C3)nn2)c1 [Compound 1, (3aR,5s,6aS)-2-((tetrahydro-2H-pyran-4-yl)methyl)-N-(6-(2,3,5-trifluorophenyl)pyridazin-3-yl)octahydrocyclopenta[c]pyrrol-5-amine]	4	10.5
Fc1cc(F)c(F)c(-c2ccc(N[C@H]3C[C@@H]4CN(Cc5ccccn5)C[C@@H]4C3)nn2)c1 [Compound 2, (3aR,5s,6aS)-2-(pyridin-2-ylmethyl)-N-(6-(2,3,5-trifluorophenyl)pyridazin-3-yl)octahydrocyclopenta[c]pyrrol-5-amine]	4	21.1
